Test results as given in patent US20240158446A1, “CYCLIC COMPOUND HAVING SELECTIVE INHIBITORY ACTION ON KRAS OVER HRAS AND NRAS” (CHUGAI SEIYAKU KABUSHIKI KAISHA, priority 2021, published 2024).

Experiments:
[1] = target: GDP-bound KRAS wild-type protein (Homo sapiens, UniProt P01116); assay: Binding to KRAS by surface plasmon resonance (SPR), Single Cycle Kinetics; details: SPR, Single Cycle Kinetics, 1:1 binding model; GDP-bound KRAS wild-type protein; read-out: KRAS KD
[2] = tested on: human lung cancer strain NCI-H441;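 note: cell proliferation inhibition after four days measured by CellTiter-Glo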
[3] = target: GDP-bound HRAS wild-type protein (Homo sapiens, UniProt P01112); assay: Binding to HRAS by surface plasmon resonance (SPR), Single Cycle Kinetics; details: SPR; GDP-bound HRAS wild-type protein vs GDP-bound KRAS wild-type protein; KD ratio class
[4] = target: GDP-bound NRAS wild-type protein (Homo sapiens, UniProt P01111); assay: Binding to NRAS by surface plasmon resonance (SPR), Single Cycle Kinetics; details: SPR; GDP-bound NRAS wild-type protein vs GDP-bound KRAS wild-type protein; KD ratio class
GDP-bound NRAS wild-type protein, sequence (P01111 whole entry): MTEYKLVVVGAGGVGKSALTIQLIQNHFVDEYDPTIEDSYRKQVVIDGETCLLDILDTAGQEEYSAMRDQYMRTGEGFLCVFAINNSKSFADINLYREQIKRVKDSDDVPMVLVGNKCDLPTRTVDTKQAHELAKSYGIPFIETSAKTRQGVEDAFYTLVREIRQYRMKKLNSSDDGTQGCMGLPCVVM

GDP-bound KRAS wild-type protein, sequence (P01116 whole entry): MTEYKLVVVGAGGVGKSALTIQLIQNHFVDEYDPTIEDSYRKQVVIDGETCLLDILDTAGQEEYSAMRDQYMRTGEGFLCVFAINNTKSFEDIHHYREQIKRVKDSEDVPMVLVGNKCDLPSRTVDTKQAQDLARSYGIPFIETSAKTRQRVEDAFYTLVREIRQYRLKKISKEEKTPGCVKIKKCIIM
GDP-bound HRAS wild-type protein, sequence (P01112 whole entry): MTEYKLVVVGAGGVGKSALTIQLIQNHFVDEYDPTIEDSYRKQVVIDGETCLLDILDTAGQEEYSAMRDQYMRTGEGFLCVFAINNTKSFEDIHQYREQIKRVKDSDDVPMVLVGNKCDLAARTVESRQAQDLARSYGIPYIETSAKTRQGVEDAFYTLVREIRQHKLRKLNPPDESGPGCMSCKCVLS

| Structure (SMILES) | Kd [1] [nM] | IC50 [2] [nM] | HRAS/KRAS (ratio of KD value for HRAS to KD value for KRAS) [3] | NRAS/KRAS (ratio of KD value for NRAS to KD value for KRAS) [4] |
| --- | --- | --- | --- | --- |
| CCO[C@@H]1C[C@H]2C(=O)NC3(CCC3)C(=O)N(C)[C@@H](C(CC)CC)C(=O)N(C)[C@H](C(=O)N(C)C)CC(=O)N(C)[C@@H](CC)C(=O)N[C@@H]([C@@H](C)CC)C(=O)N(C)CC(=O)N(C)[C@H]3C/C=C\CCN(C3=O)[C@@H](Cc3ccc(C(F)(F)F)cc3)C(=O)N(C)CC(=O)N[C@@H](CCc3ccc(C(F)(F)F)c(OC)c3)C(=O)N2C1 [PP1207] | 0.21 | 29.9 | A (a compound having 10 or more and less than 20 is denoted as A) | AA (a compound having 20 or more is denoted as AA) |
| CCC[C@H]1C(=O)N[C@@H]([C@@H](C)CC)C(=O)N(C)CC(=O)N(C)[C@H]2C/C=C\CCN(C2=O)[C@@H](Cc2ccc(C(F)(F)F)cc2)C(=O)N(C)CC(=O)N[C@@H](CCc2ccc(C(F)(F)F)c(OC)c2)C(=O)N2C[C@H](OCC)C[C@H]2C(=O)NC2(CCC2)C(=O)N(C)[C@@H](C(CC)CC)C(=O)N(C)[C@H](C(=O)N(C)C)CC(=O)N1C [PP1208] | 0.17 | 24.4 | A (a compound having 10 or more and less than 20 is denoted as A) | AA (a compound having 20 or more is denoted as AA) |
| CCO[C@@H]1C[C@H]2C(=O)NC3(CCC3)C(=O)N(C)[C@@H](C(CC)CC)C(=O)N(C)[C@H](C(=O)N(C)C)CC(=O)N(C)[C@@H](CC(C)C)C(=O)N[C@@H]([C@@H](C)CC)C(=O)N(C)CC(=O)N(C)[C@H]3C/C=C\CCN(C3=O)[C@@H](Cc3ccc(C(F)(F)F)cc3)C(=O)N(C)CC(=O)N[C@@H](CCc3ccc(C(F)(F)F)c(OC)c3)C(=O)N2C1 [PP1209] | 0.22 | 15.9 | A (a compound having 10 or more and less than 20 is denoted as A) | AA (a compound having 20 or more is denoted as AA) |
| CCO[C@@H]1C[C@H]2C(=O)NC3(CCC3)C(=O)N(C)[C@@H](C(CC)CC)C(=O)N(C)[C@H](C(=O)N(C)C)CC(=O)N(C)[C@@H](CC3CC3)C(=O)N[C@@H]([C@@H](C)CC)C(=O)N(C)CC(=O)N(C)[C@H]3C/C=C\CCN(C3=O)[C@@H](Cc3ccc(C(F)(F)F)cc3)C(=O)N(C)CC(=O)N[C@@H](CCc3ccc(C(F)(F)F)c(OC)c3)C(=O)N2C1 [PP1211] | 0.27 | 26.8 | B (a compound having 3 or more and less than 10 is denoted as B) | A (a compound having 10 or more and less than 20 is denoted as A) |
| CCO[C@@H]1C[C@H]2C(=O)NC3(CCC3)C(=O)N(C)[C@@H](C(CC)CC)C(=O)N(C)[C@H](C(=O)N(C)C)CC(=O)N(C)[C@@H](CC3CCCC3)C(=O)N[C@@H]([C@@H](C)CC)C(=O)N(C)CC(=O)N(C)[C@H]3C/C=C\CCN(C3=O)[C@@H](Cc3ccc(C(F)(F)F)cc3)C(=O)N(C)CC(=O)N[C@@H](CCc3ccc(C(F)(F)F)c(OC)c3)C(=O)N2C1 [PP1212] | 0.28 | 35.6 | A (a compound having 10 or more and less than 20 is denoted as A) | AA (a compound having 20 or more is denoted as AA) |
| CCO[C@@H]1C[C@H]2C(=O)NC3(CCC3)C(=O)N(C)[C@@H](C(CC)CC)C(=O)N(C)[C@H](C(=O)N(C)C)CC(=O)N(C)[C@@H](COC)C(=O)N[C@@H]([C@@H](C)CC)C(=O)N(C)CC(=O)N(C)[C@H]3C/C=C\CCN(C3=O)[C@@H](Cc3ccc(C(F)(F)F)cc3)C(=O)N(C)CC(=O)N[C@@H](CCc3ccc(C(F)(F)F)c(OC)c3)C(=O)N2C1 [PP1213] | 0.18 | 40.4 | A (a compound having 10 or more and less than 20 is denoted as A) | AA (a compound having 20 or more is denoted as AA) |
| CCO[C@@H]1C[C@H]2C(=O)NC3(CCC3)C(=O)N(C)[C@@H](C(CC)CC)C(=O)N(C)[C@H](C(=O)N(C)C)CC(=O)N(C)[C@@H](C)C(=O)N[C@@H]([C@@H](C)CC)C(=O)N(C)CC(=O)N(C)[C@H]3C/C=C\CCN(C3=O)[C@@H](Cc3ccc(C(F)(F)F)cc3)C(=O)N(C)CC(=O)N[C@@H](CCc3ccc(Cl)c(Cl)c3)C(=O)N2C1 [PP1214] | 0.34 | 93.4 | A (a compound having 10 or more and less than 20 is denoted as A) | AA (a compound having 20 or more is denoted as AA) |
| CCO[C@@H]1C[C@H]2C(=O)NC3(CCC3)C(=O)N(C)[C@@H](C(CC)CC)C(=O)N(C)[C@H](C(=O)N(C)C)CC(=O)N(C)[C@@H](CC)C(=O)N[C@@H]([C@@H](C)CC)C(=O)N(C)CC(=O)N(C)[C@H]3C/C=C\CCN(C3=O)[C@@H](Cc3ccc(C(F)(F)F)cc3)C(=O)N(C)CC(=O)N[C@@H](CCc3ccc(Cl)c(Cl)c3)C(=O)N2C1 [PP1215] | 0.42 | 33.4 | A (a compound having 10 or more and less than 20 is denoted as A) | AA (a compound having 20 or more is denoted as AA) |
| CCC[C@H]1C(=O)N[C@@H]([C@@H](C)CC)C(=O)N(C)CC(=O)N(C)[C@H]2C/C=C\CCN(C2=O)[C@@H](Cc2ccc(C(F)(F)F)cc2)C(=O)N(C)CC(=O)N[C@@H](CCc2ccc(Cl)c(Cl)c2)C(=O)N2C[C@H](OCC)C[C@H]2C(=O)NC2(CCC2)C(=O)N(C)[C@@H](C(CC)CC)C(=O)N(C)[C@H](C(=O)N(C)C)CC(=O)N1C [PP1216] | 0.39 | 19.8 | A (a compound having 10 or more and less than 20 is denoted as A) | AA (a compound having 20 or more is denoted as AA) |
| CCO[C@@H]1C[C@H]2C(=O)NC3(CCC3)C(=O)N(C)[C@@H](C(CC)CC)C(=O)N(C)[C@H](C(=O)N(C)C)CC(=O)N(C)[C@@H](CC(C)C)C(=O)N[C@@H]([C@@H](C)CC)C(=O)N(C)CC(=O)N(C)[C@H]3C/C=C\CCN(C3=O)[C@@H](Cc3ccc(C(F)(F)F)cc3)C(=O)N(C)CC(=O)N[C@@H](CCc3ccc(Cl)c(Cl)c3)C(=O)N2C1 [PP1217] | 0.48 | 17.8 | A (a compound having 10 or more and less than 20 is denoted as A) | AA (a compound having 20 or more is denoted as AA) |
| CCCCCC[C@H]1C(=O)N[C@@H]([C@@H](C)CC)C(=O)N(C)CC(=O)N(C)[C@H]2C/C=C\CCN(C2=O)[C@@H](Cc2ccc(C(F)(F)F)cc2)C(=O)N(C)CC(=O)N[C@@H](CCc2ccc(Cl)c(Cl)c2)C(=O)N2C[C@H](OCC)C[C@H]2C(=O)NC2(CCC2)C(=O)N(C)[C@@H](C(CC)CC)C(=O)N(C)[C@H](C(=O)N(C)C)CC(=O)N1C [PP1218] | 0.88 | 67.9 | A (a compound having 10 or more and less than 20 is denoted as A) | AA (a compound having 20 or more is denoted as AA) |
| CCO[C@@H]1C[C@H]2C(=O)NC3(CCC3)C(=O)N(C)[C@@H](C(CC)CC)C(=O)N(C)[C@H](C(=O)N(C)C)CC(=O)N(C)[C@@H](CC3CC3)C(=O)N[C@@H]([C@@H](C)CC)C(=O)N(C)CC(=O)N(C)[C@H]3C/C=C\CCN(C3=O)[C@@H](Cc3ccc(C(F)(F)F)cc3)C(=O)N(C)CC(=O)N[C@@H](CCc3ccc(Cl)c(Cl)c3)C(=O)N2C1 [PP1219] | 0.35 | 21.4 | A (a compound having 10 or more and less than 20 is denoted as A) | AA (a compound having 20 or more is denoted as AA) |
| CCO[C@@H]1C[C@H]2C(=O)NC3(CCC3)C(=O)N(C)[C@@H](C(CC)CC)C(=O)N(C)[C@H](C(=O)N(C)C)CC(=O)N(C)[C@@H](CC3CCCC3)C(=O)N[C@@H]([C@@H](C)CC)C(=O)N(C)CC(=O)N(C)[C@H]3C/C=C\CCN(C3=O)[C@@H](Cc3ccc(C(F)(F)F)cc3)C(=O)N(C)CC(=O)N[C@@H](CCc3ccc(Cl)c(Cl)c3)C(=O)N2C1 [PP1220] | 0.57 | 22.2 | A (a compound having 10 or more and less than 20 is denoted as A) | AA (a compound having 20 or more is denoted as AA) |
| CCO[C@@H]1C[C@H]2C(=O)NC3(CCC3)C(=O)N(C)[C@@H](C(CC)CC)C(=O)N(C)[C@H](C(=O)N(C)C)CC(=O)N(C)[C@@H](COC)C(=O)N[C@@H]([C@@H](C)CC)C(=O)N(C)CC(=O)N(C)[C@H]3C/C=C\CCN(C3=O)[C@@H](Cc3ccc(C(F)(F)F)cc3)C(=O)N(C)CC(=O)N[C@@H](CCc3ccc(Cl)c(Cl)c3)C(=O)N2C1 [PP1221] | 0.4 | 40.6 | A (a compound having 10 or more and less than 20 is denoted as A) | AA (a compound having 20 or more is denoted as AA) |
| CCO[C@@H]1C[C@H]2C(=O)NC3(CCC3)C(=O)N(C)[C@@H](C(CC)CC)C(=O)N(C)[C@H](C(=O)N(C)C)CC(=O)N(C)[C@@H](C)C(=O)N[C@@H]([C@@H](C)CC)C(=O)N(C)CC(=O)N(C)[C@H]3C/C=C\CCN(C3=O)[C@@H](Cc3ccc(C(F)(F)F)cc3)C(=O)N(C)CC(=O)N[C@@H](CCc3ccc4sccc4c3)C(=O)N2C1 [PP1222] | 1.2 | 301 | A (a compound having 10 or more and less than 20 is denoted as A) | A (a compound having 10 or more and less than 20 is denoted as A) |
